# In publication PMC3995012, “The Cyanobactin Heterocyclase Enzyme: A Processive Adenylase That Operates with a Defined Order of Reaction” (Angewandte Chemie (International Ed. in English), 2013):
# Entries after “also recorded” stand apart in the source; their conditions may differ. Where two headings read alike, the source gives them in different places.
# Columns and labels:
# TruD [1] = target: T1, TruD (uncultured Prochloron sp. 06037A, UniProt B2KYG8); assay: Isothermal titration calorimetry (VP-ITC), nucleotide injected into TruD in 150 mM NaCl, 10 mM HEPES pH 7.4, 1 mM TCEP at 20 or 25 °C, fitted to a one-site model.; format: binding
# T1 construct: codon-optimized full-length, N-terminal His6-tag removed by TEV protease, expressed in E. coli BL21 (DE3); homodimer with structural Zn
# T1 sequence (B2KYG8 2-781): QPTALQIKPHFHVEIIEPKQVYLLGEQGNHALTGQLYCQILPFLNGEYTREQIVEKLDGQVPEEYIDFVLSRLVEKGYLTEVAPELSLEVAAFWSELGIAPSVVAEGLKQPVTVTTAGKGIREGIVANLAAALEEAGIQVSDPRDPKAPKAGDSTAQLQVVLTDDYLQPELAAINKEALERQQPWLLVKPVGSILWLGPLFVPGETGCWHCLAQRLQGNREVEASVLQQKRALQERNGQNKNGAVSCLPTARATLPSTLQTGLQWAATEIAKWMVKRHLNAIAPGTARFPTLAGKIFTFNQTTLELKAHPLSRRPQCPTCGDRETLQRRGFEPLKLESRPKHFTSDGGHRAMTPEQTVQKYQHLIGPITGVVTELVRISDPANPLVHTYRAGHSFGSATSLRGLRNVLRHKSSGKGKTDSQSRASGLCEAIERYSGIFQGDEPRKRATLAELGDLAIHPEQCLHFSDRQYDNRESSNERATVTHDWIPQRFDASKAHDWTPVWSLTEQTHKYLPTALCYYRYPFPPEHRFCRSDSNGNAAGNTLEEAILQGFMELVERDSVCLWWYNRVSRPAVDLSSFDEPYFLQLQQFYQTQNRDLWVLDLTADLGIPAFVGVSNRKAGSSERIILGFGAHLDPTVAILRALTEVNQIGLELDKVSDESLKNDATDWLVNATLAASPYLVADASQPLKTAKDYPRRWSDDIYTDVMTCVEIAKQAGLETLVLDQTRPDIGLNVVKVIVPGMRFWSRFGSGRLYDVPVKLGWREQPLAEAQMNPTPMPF
# Method: (§1) TruD solutions. The top panels show raw data representing the response to injections, the bottom panels show integrated heats of injections (!) and the best fit (— ) to the […]
# (§2) nucleoside. […]
# (§3) ITC experiments were carried out using a VP-ITC instrument (MicroCal) in TruD sample buffer (150 mM NaCl, 10 mM HEPES pH 7.4, 1 mM TCEP) at 20 or 25 °C.
# (§4) Protein concentrations were determined using absorbance at 280 nm and predicted extinction coefficients (ProtParam, ExPASy) used. The concentration of PatEY53A, which lacks absorbance at 280 nm, was based on absorbance at 230 nm. All solutions were dialyzed overnight. Nucleotides and the #25 peptide were dissolved in TruD sample buffer and the pH was adjusted with small amounts of 1 M NaOH to match the buffer. Cell and syringe solutions were degassed at 18 or 23 °C for 15 min.
# Titrations were performed as follows: one injection of 2 µl followed by injections of 5-10 µl at an injection speed of 0.5 µl/min. The stirring speed was 307 rpm; the delay between the injections was 4-6 min. […]
# (§5) NMR experiments were performed at 10 °C on a Bruker DRX500 spectrometer equipped with a 5mm TXIz probe. […] Aliquots of 646 µM TruD were added to final concentrations of 50, 100 and 150 µM, and HSQCs were recorded after each addition. For heterocyclization monitoring, the samples contained 200 µM u-15N-PatE precursor peptide and were incubated at 10 °C with 5 µM TruD in heterocyclization buffer with 5% D2O, and spectra were recorded at progressively longer intervals (initially 0.5 h, then 1 h, then 2 h). […]
# For sequential assignment, a 1.0 mM sample of u-13C, 15N-PatE precursor peptide in heterocyclization buffer was prepared. […] Equivalent spectra were recorded for fully heterocyclized u-13C, 15N-PatE (concentration 1.0 mM) and a sample where the enzymatic transformation was interrupted after 8 h by gel filtration on a Superdex S75 column (GE Healthcare) in TruD sample buffer (see ITC experimental section), thus allowing assignment of the reaction intermediate. All spectra were processed with NMRPipe ,$- and analyzed with CCPN Analysis 2.1 ,%-. […]
# TruD [2] = assay: ITC, injection of nucleosides into TruD solutions; format: binding, Prochloron spp.; conditions: for Kd: one-site model
# Method: as §1, §2, §3, §4
# Titrations were performed as follows: one injection of 2 µl followed by injections of 5-10 µl at an injection speed of 0.5 µl/min. The stirring speed was 307 rpm; the delay between the injections was 4-6 min. To take into account heats of dilution, blank titrations were performed by injecting ligand solution into TruD sample buffer and the averaged heat of dilution was subtracted from the main experiment. Blank titrations were omitted in cases of saturated binding where the averaged residual signal of the last injections was used to determine the heat of dilution. Raw data were processed using MicroCal Origin software. […]
# as §5
# For sequential assignment, a 1.0 mM sample of u-13C, 15N-PatE precursor peptide in heterocyclization buffer was prepared. […] Equivalent spectra were recorded for fully heterocyclized u-13C, 15N-PatE (concentration 1.0 mM) and a sample where the enzymatic transformation was interrupted after 8 h by gel filtration on a Superdex S75 column (GE Healthcare) in TruD sample buffer (see ITC experimental section), thus allowing assignment of the reaction intermediate. All spectra were processed with NMRPipe ,$- and analyzed with CCPN Analysis 2.1 ,%-.
# 31P NMR experiments were performed at 10 °C on a Bruker AVANCE III spectrometer equipped with a 5mm BBFO+ (Smart) probe and required the substitution of sample buffer TCEP with DTT. […] 31P NMR spectra were recorded with broadband power-gated 1H decoupling and relaxation delay D1 = 1.5s. […]
# TruD [3] = assay: Heterocyclization reactions analysed by MS (ESI, MALDI, fragmentation); format: biochemical, Prochloron spp.; conditions: for use as nucleotide cofactor for heterocyclization of PatE2 by TruD: PatE2 with TruD, LC-MS and HSQC NMR of products
# Method: for 20 min followed by passage through a 0.45 "m filter. The cleared lysate was applied to a Ni-sepharose FF column (GE Healthcare) equilibrated with urea lysis buffer and protein eluted with urea lysis buffer containing 250 mM imidazole. The eluate was then supplemented with 10 mM DTT and incubated at room temperature for 30 min before size-exclusion chromatography (Superdex 75, GE Healthcare) in 150 mM NaCl, 10 mM HEPES pH 7.4, 1 mM TCEP. Peak fractions were pooled and […]
# PatE for NMR studies was produced as above, except that E. coli were grown in M9 minimal medium ,*- prepared with 15NH4Cl (Sigma) and additionally with 13C6-glucose (Sigma) for doubly labeled protein. Cells were grown to an optical density at 600 nm of 0.6, at which point expression was induced by addition of 0.5 mM IPTG and grown over night at 30 °C.
# Heterocyclization reactions
# For all heterocyclization reactions for MS analysis, 100 µM substrate (PatE, PatE mutants and peptides) was incubated with 0.5 µM enzyme in heterocyclization buffer (150 mM NaCl, 10 mM HEPES pH 7.4, 1 mM TCEP, 5 mM ATP, 5 mM MgCl2) for 60 min, 70 min or 16 h at 37 °C. Samples were analyzed by ESI or MALDI MS (LCT, Micromass or 4800 MALDI TOF/TOF Analyzer, ABSciex). […]
# For heterocyclization reactions to be monitored by NMR the PatE concentration was increased to 200 µM and 5 µM TruD was used and the incubation temperature reduced to 10 °C. For reaction endpoints analyzed by 31P NMR samples were […]
# The assay is based on coupling the TruD-dependent formation of AMP to the lactate dehydrogenase oxidation decay of NADH with NADH concentration monitored by 340 nm absorbance. […]
# each added to the assay in this order. […] The decay of NADH concentration were recorded for 40 min and calculated by using extinction coefficient for NADH (#340 = […]
# MALDI MS was acquired using a 4800 MALDI TOF/TOF Analyzer (ABSciex, Foster City, CA) equipped with a Nd:YAG 355 nm laser in linear mode and calibrated using the [M+H]+ and [M+2H]2+ peaks of ubiquitin. The spot was analyzed in positive MS mode between 3000 and 10000 m/z, by averaging 1000 laser spots. […]
# [4] = VP-ITC, 150 mM NaCl, 10 mM HEPES pH 7.4, 1 mM TCEP, 20 or 25 °C, read-out: KD
molecule,measurement,setting,value
"Nc1ncnc2c1ncn2[C@@H]1O[C@H](COP(=O)(O)OP(=O)(O)O)[C@@H](O)[C@H]1O [ADP, adenosine 5'-diphosphate]",Kd,TruD [1]; read-out: KD,20 µM
Nc1ncnc2c1ncn2[C@@H]1O[C@H](COP(=O)(O)OP(=O)(O)O)[C@@H](O)[C@H]1O [ADP],Kd,"TruD [2]; ADP decomposes slowly, only the rapidly emerging endothermic parts of the ITC signals analysed, read-out: apparent KD",20 µM
"Nc1ncnc2c1ncn2[C@@H]1O[C@H](COP(=O)(O)O)[C@@H](O)[C@H]1O [AMP, adenosine 5'-monophosphate]",Kd,TruD [1]; read-out: KD,12 µM
Nc1ncnc2c1ncn2[C@@H]1O[C@H](COP(=O)(O)O)[C@@H](O)[C@H]1O [AMP],Kd,TruD [2]; [4],12 µM
"Nc1ncnc2c1ncn2[C@@H]1O[C@H](COP(=O)(O)OP(=O)(O)OP(=O)(O)O)[C@@H](O)[C@H]1O [ATP, adenosine 5'-triphosphate]",Kd,TruD [1],19 µM
Nc1ncnc2c1ncn2[C@@H]1O[C@H](COP(=O)(O)OP(=O)(O)OP(=O)(O)O)[C@@H](O)[C@H]1O [ATP],Kd,TruD [2]; [4],19 µM
Nc1nc2c(ncn2[C@@H]2O[C@H](COP(=O)(O)OP(=O)(O)OP(=O)(O)O)[C@@H](O)[C@H]2O)c(=O)[nH]1 [GTP],use as nucleotide cofactor for heterocyclization of PatE2 by TruD,TruD [3],can catalyze heterocyclization of cysteine
Cc1cn([C@H]2C[C@H](O)[C@@H](COP(=O)(O)OP(=O)(O)OP(=O)(O)O)O2)c(=O)[nH]c1=O [dTTP],binding to TruD in ITC experiments,TruD [2]; injection into a TruD solution,not report binding under these conditions; also recorded: does not bind
same,use as nucleotide cofactor for heterocyclization of PatE2 by TruD,TruD [3],can catalyze heterocyclization of cysteine
"ITACITFC [core peptide, the eight-residue core peptide itself]",processing (heterocyclization of cysteines) by TruD,"TruD [3]; 100 µM substrate, 0.5 µM enzyme, 150 mM NaCl, 10 mM HEPES pH 7.4, 1 mM TCEP, 5 mM ATP, 5 mM MgCl2, 60 min, 70 min or 16 h at 37 °C, ESI or MALDI MS",No reaction
